Experimental findings from article PMC13050480, “Preclinical Development of GT-14, a Novel Inhibitor of Gαi2 Protein: Comprehensive Evaluation of Physicochemical, Metabolic Characteristics and Tissue Distribution” (The AAPS journal, 2025) are described below.

One data set concerns rat liver microsomes. Nature of the data set: Phase I biotransformation in rat liver microsomes. The data set is classed as in vitro ADME. Particulars: NADPH regenerating system, 37°C. How it is done:
(§1) The in vitro phase I reaction was conducted using rat liver microsome, which contain the cytochrome P450 monooxygenases that catalyze oxidation, reduction, or hydrolysis reactions to introduce or expose functional groups on the substrate. NADPH is the cofactor to provide the reducing equivalents required for enzymatic activity, while the cofactor regeneration systems (NADP^+, glucose-6-phosphate, and glucose-6-phosphate dehydrogenase) maintain a sustained supply of NADPH during the reaction to facilitate the metabolite, Potassium phosphate buffer (KPI) mimics physiological conditions. The components were added to microcentrifuge tubes in the following order: The stock solution GT-14 (5 μL, 1 mM) was pre-incubated with rat liver microsomes (12.5 μL, 20 mg/mL, Corning Inc.) at 37°C in KPI buffer(452.5 μL, 50 mM) for 5 min before the reaction was initiated by the addition of an NADPH regenerating system, which consisted of 25μL of solution A1(1.3 mM NADP+, 3.3 mM glucose-6-phosphate, 3.3 mM magnesium chloride), and 5μL of solution B1 (0.5 units/mL glucose-6-phosphate dehydrogenase). Reaction mixtures were incubated at 37 °C in a shaker bath, shaking at 100 rpm. […] The quenched samples were vortexed, centrifuged (14,000 rpm for 15 min) and analyzed by UPLC.
A general note: Liver microsomes are vesicles of endoplasmic reticulum, rich in cytochrome P450 enzymes.

Data set [1] in a line: Phase I biotransformation in rat liver microsomes. Particulars: rat, 60 min incubation. Format: in vitro ADME. The method, then:
as §1

Entries after “also recorded” stand apart in the source; their conditions may differ.

Regarding `C/C(=N\c1ccc(O)cc1)c1cc2ccccc2n1C` [GT-14, (E)-4-((1-(1-methyl-1H-indol-2-yl)ethylidene)amino)phenol], the “Phase I metabolism (UPLC peaks)” value in the data set on rat liver microsomes is “undergoes Phase I metabolism; also recorded: underwent Phase I metabolism; also recorded: at least four additional peaks appeared”. For the same compound, the share remaining (as a rule, what is left of the initial amount, in per cent) at 1 h, 10 μM in data set [1] was more than 90%.
